Assays:
[1] = tested on: LPS-induced cytokine release in human iPSC-derived microglia; assay: Cytokine release assay in LPS-stimulated iPSC-derived microglia; type: cell-based; conditions: 20 μM, 5 hours, panel of 36 cytokines
Method: Cytokine release assay. […] Subsequently, media cleared of cells and debris was collected, snap-frozen and stored at -80 C until processing with the Human Cytokine Array kit (R&D Systems, Catalog #ARY005). Briefly, media was diluted in Array Buffer 4 and incubated with a cocktail of biotinylated detection antibodies for 1 h at room temperature with rocking. The resulting immunocomplexes were incubated with nitrocellulose membranes spotted with capture antibodies overnight at 4 C (see below for full list of targets). The membranes were washed 4× with Wash Buffer, then incubated with IRDye 800CW Streptavidin for 30 minutes at room temperature (1:2000 in Array Buffer 5, LI-COR #926-32230). The membranes were washed 4× and imaged with an Odyssey CLx instrument. Intensity for each spot was quantified with ImageStudio. Technical duplicate values for each target were averaged, and we determined differential cytokine release by microglia exposed to LPS+vehicle versus vehicle only (n=2 biological replicates, two-tailed t-tests, P<0.05).

LC3-II = LC3-II in AD patient-derived induced neurons; type: cell-based, human; conditions: 24 h
Method: Western blotting. For drug treatment assays, cells were treated with vehicle (DMSO) or 20 μM compound and stimulated with IL1-B 10 ng/mL for 1 h, 6 h, or 24 h. Cells were dissociated with 1:1 Accutase:papain for 3 min at rt, pelleted for 5 min at 800 g, and washed twice with cold DPBS. Pellets were lysed with RIPA buffer (Sigma R0278) supplemented with Halt protease inhibitor cocktail (Thermo Fisher 78445) and clarified by centrifugation (16,000 g, 10 min, 4° C.). Protein concentration was determined by BCA assay (Thermo Fisher). Proteins were denatured in 1×LDS Buffer and 2.5% beta-mercaptoethanol (X) for 10 min at 70° C., separated on Bolt 4-12% Bis-Tris Plus polyacrylamide gels (Thermo Fisher), transferred to PVDF membranes using the iBlot 2 Dry Blotting System, and blocked with 0.1% casein-PBS (Bio-Rad) for 1 h at room temperature. The blots were incubated with primary antibodies overnight at 4° C. in PBS containing 0.1% casein and 0.2% Tween-20. […] The blots were imaged using the Odyssey CLx imaging system and blots were analyzed on the ImageStudio software (LI-COR).

COc1cc(-c2cc(=O)c3c(O)cc(O)cc3o2)ccc1O [CHR, chrysoeriol]
release of LPS-induced pro-inflammatory cytokines [1]: significantly blocked
LC3-II (marker of autophagy/mitophagy) (LC3-II): increased

— patent US20240197890A1, “FLAVONE DERIVATIVES AND USES IN TARGETING CK2-MEDIATED DISEASES AND CONDITIONS” (Salk Institute for Biological Studies, priority 2020, published 2024)
